Laboratory results published in US10278940B2, “Use of 2,5-dihydroxybenzene compounds and derivatives for the treatment of skin cancer” (AmDerma Pharmaceuticals, LLC, priority 2006, dated 2019).

Columns and labels:
[1] = molecular target: T1, Fibroblast Growth Factor-1 (FGF-1) (Homo sapiens, UniProt P05230); experiment: Mitogenesis induced by FGF-1 in quiescent Balb/c 3T3 fibroblast cultures; type: cell-based
T1 construct: host or cells: added to Balb/c 3T3 fibroblast cultures
Protocol: The evaluated compounds were used in the form of potassium salt, except in the first case which used calcium salt. The experiments were carried out as described in Femandez-Tomero C et al. J Bioi Chern, 2003.

[2] = system: subcutaneous gliomas (rat C6 glioma cells); experiment: Progression of established subcutaneous C6 gliomas in rats; type: in vivo
Protocol: Rat C6 glioma cells were cultured as previously described (Cuevas P et al. Neural Res, 2005). The C6 cells cultured to confluence in 75 cm^2 flasks were removed and implanted under the abdominal skin in anesthetized rats. The existence of a tumor in the implantation area was observed five days after the implantation of the tumor cells. Only the rats in which the existence of a tumor was observed were randomly assigned to be treated with daily intraperitoneal injections of 2,5-dihydroxybenzene sulfonate (DHBS; 100 mg/kg/day), 2,5-diacetoxybenzene sulfonate (DABS; 100 mg/kg/day) or the carrier (0.9% NaCl). After 10 days of treatment, the subcutaneous gliomas were removed and their volume was calculated according to the formula V=4/3π.(L/2).(A/2)^2 (in mm^3) where L is the larger diameter and A is the smaller diameter, both expressed in mm.

[3] = system: rat glioma C6 cells; experiment: Rat glioma C6 cell proliferation, crystal violet staining; type: cell-based; settings: 48 h; for C6 cell proliferation: relative to control; for rat glioma cell proliferation (absorbance at 595 nm, % of control): 500 μM
Protocol: The cell line used was rat glioma C6 cells. The cells were cultured as previously described (Cuevas P et al. Neural Res, 2005). The cells were cultured as adherent cells in Dulbecco's modified Eagle's medium, supplemented with 7.5% (v/v) of fetal bovine serum, 10 μg/ml of streptomycin and 10 units/ml of penicillin. The tumor cells were seeded in 24-well plates at a density of 10,000 cells/well, and were incubated at 37° C. in a humidified chamber with 5% CO2. Once adhered, the cells were treated or not (controls) with 2,5-dihydroxybenzoate at 100, 200, 500 or 1000 µM and they were allowed to proliferate for 48 h. After this time the glioma cell proliferation was evaluated by means of staining the fixed cells with crystal violet. The number of cells is proportional to the amount of retained dye, which was spectrophotometrically determined by measuring the absorbance at 595 nm once the dye was extracted from the cells.
(§1) The cell line used was the C6 cell line and the experiment was carried out as described in Example 2. Once adhered, the cells were treated or not (controls) with increasing concentrations of 2,5-DHC (10, 25, 50 and 100 μM) and they were allowed to proliferate for 48 h. After this time the glioma cell proliferation was evaluated by means of staining the fixed cells with crystal violet. The number of cells is proportional to the amount of retained dye, which was determined spectrophotometrically by measuring absorbance at 595 nm once the dye was extracted from the cells.
as §1, with “examples 2 and 3.” for “Example 2.”, “(5A-2HBS) (500 μM) or (2A-5HBS) (500” for “increasing concentrations of 2,5-DHC (10, 25, 50 and 100”, “measuring the” for “measuring”

[4] = molecular target: T1, Fibroblast Growth Factor-1 (FGF-1); experiment: Crystal diffraction of FGF-1:compound complexes; settings: electron density contoured at 1σ; acetoxyl groups conserved on binding
Protocol: Based on the crystal diffraction of the FGF-1:2-acetoxy-5-hydroxybenzene sulfonic acid, FGF-1:5-acetoxy-2-hydroxybenzene sulfonic acid and FGF-1:2,5-diacetoxybenzene sulfonic acid complexes, the structures of the complexes were calculated and represented. FIGS. 13, 14 and 15, which show the surface of the dyed protein according to its electrostatic potential (light grey, negative charge; dark grey, positive charge; white, regions with no charge), show the manner in which 2-acetoxy-5-hydroxybenzene sulfonic acid, 5-acetoxy-2-hydroxybenzene sulfonic acid and 2,5-diacetoxybenzene sulfonic acid interact, respectively, with FGF-1.

[5] = system: subcutaneous gliomas (rat C6 glioma cells); experiment: Apoptosis in sections of subcutaneous gliomas (hematoxylin and eosin); type: in vivo, rats; settings: 100 mg/kg/day i.p. for 10 days; vs carrier
From the text: Tumor cells elude the programmed cell death process or apoptosis that normal cells experience. Apoptosis induction in tumor cells is one way to confront the development of a tumor. To evaluate the effect of potassium 2,5-[…] sulfonate (DABS) on tumor cell apoptosis, 6).lm thick sections of the subcutaneous gliomas described in example 4 were made. The sections were stained with hematoxylin and eosin and observed at a magnification of 313 times using immersion oil. In these conditions, cell apoptosis is shown by the existence of apoptotic bodies appearing as strongly chromogenic granules in the cell nucleus which is frequently fragmented.

[6] = system: human prostate cancer PC-3 cells; experiment: Subcutaneous PC-3 prostate cancer cell implantation model in athymic mice; type: in vivo, athymic mice (Nu/Nu); settings: 100 mg/kg daily i.p. for 15 days, vs carrier
Protocol: 5×10^6 human prostate cancer PC-3 cells were subcutaneously injected in male athymic mice (Nu/Nu) of 6-8 weeks of age and weighing 20-26 g. Ten days after the implantation of the tumor cells, the mice were randomly split into two groups: one of them received a daily injection of potassium 2,5-diacetoxybenzene sulfonate (DABS) by intraperitoneal route at a dose of 100 mg/kg dissolved in saline (0.9% NaCl) whereas the other group received a daily injection of carrier (saline). The treatments were administered for 15 days. The volumes of the tumors induced by the implantation of PC-3 cells were measured through the skin on alternating days using a Vernier caliper. The volume was calculated using the formula […], where D is the larger diameter in mm, d is the smaller diameter in mm and V is the volume in mm^3. At the end of treatment, the mice were sacrificed and the tumors were weighed.

[7] = system: human prostate cancer PC-3 cells; experiment: Human tumor cell proliferation, XTT viability method; type: cell-based; settings: 1-200 μM; 96 h
Protocol: (§2) The cell lines used were the human prostate cancer PC-3 cells and human lung cancer A549 cells. 2000 cells were seeded per well in 96-well plates and they were allowed to adhere overnight. Then the cells were treated or not (controls) with potassium 2,5-diacetoxybenzene sulfonate (DABS) (1-200 μM) and they were allowed to proliferate for 96 h. After this time, the PC-3 and A549 cell proliferation was evaluated by determining the final number of cells by means of the viability method of yellow tetrazolium salt (XTT). The data were expressed as a percentage of the control (without treatment).

[8] = system: human lung cancer A549 cells; experiment: as above; type: cell-based; settings: 1-200 μM; 96 h
Protocol: as §2

[9] = system: bFGF-induced fibrosis; experiment: bFGF-induced fibrosis around subcutaneously implanted gelatin sponges; type: in vivo, Sprague-Dawley rats; settings: 100 μM in sponge with bFGF 10 μg/ml and heparin; subcutaneous; 7 days
Protocol: Sterile gelatin sponges ([…]; Curaspon Dental, Clinimed Holding, Zwanenburg, The Netherlands) were subcutaneously implanted in the dorsal region of the neck in Sprague-Dawley rats after the induction of intraperitoneal anesthesia. The animals were split into two groups: group A, the sponges were moistened with 200 III of saline solution which contained 25 μg/ml of heparin and 10 μg/ml of basic FGF (bFGF); group B, the sponges were moistened in the same solution as in group A, but which solution further contained 2,5-dihydroxybenzoate (100 μM). After 7 days, the sponges and the surrounding subcutaneous fat were removed and histologically analyzed.

T1 sequence (P05230 whole entry, species assumed): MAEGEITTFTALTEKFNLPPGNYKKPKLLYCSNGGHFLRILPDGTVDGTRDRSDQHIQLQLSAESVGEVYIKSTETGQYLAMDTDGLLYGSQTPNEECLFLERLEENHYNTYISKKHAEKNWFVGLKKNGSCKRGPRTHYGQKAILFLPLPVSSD

Q: How did the “mitogenesis induced by FGF-1” value [1] turn out when `O=S(=O)([O-])c1cc(O)ccc1O.[K+]` [DHBS, potassium 2,5-dihydroxybenzene sulfonate, reference compound] was run?
A: inhibition of the mitogenesis induced by fibroblast growth factor-1

Q: And the “average size (volume) of the subcutaneous gliomas” value ([2]; i.p. 100 mg/kg/day for 10 days, started on day 5 after implantation, vs carrier)?
A: less than that of the rats treated with carrier

Q: Which “mitogenesis induced by FGF-1” value [1] does the source give for “calcium 2-acetoxy-5-hydroxybenzene sulfonate” here?
A: inhibition of mitogenesis induced by FGF-1

Q: How did the C6 cell proliferation ([3]; 50 µM) turn out when `O=C(O)C=Cc1cc(O)ccc1O` [2,5-DHC, 3-(2,5-dihydroxyphenyl)-2-propenoic acid] was run?
A: reduced the C6 cell proliferation to less than half

Q: What about the C6 cell proliferation ([3]; 100 μM) of the same compound?
A: reduced to one tenth

Q: How did the “binding site on FGF-1 in the co-crystal” value [4] turn out when `CC(=O)Oc1ccc(O)c(S(=O)(=O)[O-])c1.[K+]` [5A-2HBS, potassium 5-acetoxy-2-hydroxybenzene sulfonate] was run?
A: occupy a site that is very close to the one that has been described occupied by 2,5-dihydroxybenzene sulfonic acid

Q: And the “mitogenesis induced by FGF-1” value [1]?
A: inhibition of mitogenesis induced by FGF-1

Q: And the “rat glioma cell proliferation (absorbance at 595 nm, % of control)” value [3]?
A: caused the inhibition of rat glioma cell proliferation

Q: What does the source list for `CC(=O)Oc1ccc(O)cc1S(=O)(=O)[O-].[K+]` [2A-5HBS, potassium 2-acetoxy-5-hydroxybenzene sulfonate]?
A: binding site on FGF-1 in the co-crystal [4]: occupy a site that is very close to the one that has been described occupied by 2,5-dihydroxybenzene sulfonic acid; rat glioma cell proliferation (absorbance at 595 nm, % of control) [3]: caused the inhibition of rat glioma cell proliferation

Q: With `CC(=O)Oc1ccc(OC(C)=O)c(S(=O)(=O)[O-])c1.[K+]` [DABS, potassium 2,5-diacetoxybenzene sulfonate] as the compound, how does the “tumor cells in apoptosis in glioma sections” value [5] read?
A: a large number of tumor cells in apoptosis can be observed

Q: And the “binding site on FGF-1 in the co-crystal” value [4]?
A: occupy a site that is very close to the one that has been described occupied by 2,5-dihydroxybenzene sulfonic acid

Q: And the “mitogenesis induced by FGF-1” value [1]?
A: inhibition of mitogenesis induced by FGF-1

Q: And the “probability of being tumor-free (χ2 test)” value ([2]; DABS group vs DHBS group, 100 mg/kg/day each)?
A: greater probability of being tumor-free

Q: And the “rats tumor-free when treatment ended” value ([2]; i.p. 100 mg/kg/day for 10 days, all rats had established tumors before treatment)?
A: 4 rats

Q: And the “tumor growth (tumor volume measured through the skin)” value ([6]; started 10 days after implantation)?
A: significantly reduced the human prostate cell tumor growth

Q: And the “weight of the extracted tumor when treatment ended” value [6]?
A: significant reduction of the weight of the extracted tumor

Q: What about the “PC-3 cell proliferation (number of viable cells, % of control)” value [7] of the same compound?
A: significant inhibition

Q: And the “A549 cell proliferation (number of viable cells, % of control)” value [8]?
A: significant inhibition

Q: Which results are given for `O=C([O-])c1cc(O)ccc1O.[K+]` [2,5-dihydroxybenzoate, potassium 2,5-dihydroxybenzoate]?
A: rat glioma C6 cell proliferation (absorbance at 595 nm) ([3]; 100, 200, 500 or 1000 μM): inhibited rat glioma C6 cell proliferation in a concentration-dependent manner; statistical significance of the inhibition of C6 cell proliferation ([3]; at 500 and 1000 μM, vs control): statistically significant; bFGF-induced fibrosis (fibroblasts in septa of connective tissue of adipose tissue) [9]: reduces bFGF-induced fibrosis
